Experimental findings from ChEMBL document CHEMBL1147122, “Eurysterols A and B, cytotoxic and antifungal steroidal sulfates from a marine sponge of the genus Euryspongia” (J Nat Prod, 2007) are described below.

The test system of one assay is HCT-116. Briefly: Cytotoxicity against human HCT116 cells after 72 hrs. As to conditions: HCT-116, 72 h. Format: cell-based.
Assay [1] has as its system Candida albicans. Put plainly: Antifungal activity against wild type-Candida albicans ATCC 32354 after 14 to 16 hrs. Format: functional.
For assay [2], the system named is Candida albicans. Put plainly: Antifungal activity against amphotericin-B-resistant Candida albicans ATCC 90873 after 14 to 16 hrs. In kind it is functional.

In turn, `CC(C)CCC[C@@H](C)[C@H]1CC[C@@H]2[C@]1(C)CC[C@H]1[C@@]23C[C@@H](O)[C@@]2(O)C[C@@H](OS(=O)(=O)[O-])CC[C@]12CO3.[Na+]` [EURYSTEROL A] had an IC50 in the assay with HCT-116 of 2.9 µg/mL. Besides, the MIC with Candida albicans [1] and in the assay on Candida albicans [2] was 15.6 µg/mL throughout.

In turn, `CC(C)C/C=C/[C@@H](C)[C@H]1CC[C@@H]2[C@]1(C)CC[C@H]1[C@@]23C[C@@H](O)[C@@]2(O)C[C@@H](OS(=O)(=O)[O-])CC[C@]12CO3.[Na+]` [EURYSTEROL B] displayed an IC50 in the assay with HCT-116 of 14.3 µg/mL. Besides, the minimum inhibitory concentration (MIC) in the assay on Candida albicans [1] and in the assay with Candida albicans [2] was 62.5 µg/mL in each case.

What is called IC50 is the concentration needed to halve the response being measured. Low readings indicate inhibition by little substance, high ones a need for much substance. A word on the MIC: it is the lowest concentration that inhibits growth of the organism. Higher therefore signals a less susceptible organism.
